Patent US6479513B2, “Anticancer compound and enantiomer separation method useful for synthesizing said compound” (Pfizer Inc., priority 2000, dated 2002)

Molecular target: T1, human farnesyl transferase (FTase) (Homo sapiens, UniProt P49354+P49356)
T1 construct: comprising the cytosolic fraction of homogenized brain tissue; from tissue; host or cells: brain tissue, cytosolic fraction (crude FTase)
Experiment: in vitro inhibition of human FTase, farnesyl transferase (3H) scintillation proximity assay
Assay type: biochemical
Description: The activity of the compounds of formula 1 and formula 2 as Ras farnesylation inhibitors may be determined by their ability, relative to a control, to inhibit Ras farnesyl transferase in vitro. An example of one such procedure is described below.
A crude preparation of human farnesyl transferase (FTase) comprising the cytosolic fraction of homogenized brain tissue is used for screening compounds in a 96-well assay format. […]
The assay used to measure in vitro inhibition of human FTase is a modification of the method described by Amersham LifeScience for using their Farnesyl transferase (3H) Scintillation Proximity Assay (SPA) kit (TRKQ 7010). FTase enzyme activity is determined in a volume of 100 μl containing 50 mM N-(2-hydroxy ethyl) piperazine-N-(2-ethane sulfonic acid) (HEPES), pH 7.5, 30 mM MgCl2, 20 mM KCl, 25 mM Na2HPO4, 5 mM dithiothreitol (DTT), 0.01% Triton X-100, 5% dimethyl sulfoxide (DMSO), […] of crude FTase, […] [3H]-famesyl pyrophosphate ([3H]-FPP; 36000 dpm/pmole, Amersham LifeScience), and 0.2 μM of biotinylated Ras peptide KTKCVIS (Bt-KTKCVIS) that is N-terminally biotinylated at its alpha amino group and was synthesized and purified by HPLC in house. […] The amount of radioactivity bound to the SPA beads is determined using a MicroBeta 1450 plate counter. […]

Q: Which results are given for `Cn1cncc1C(N)(c1ccc(Cl)nc1)c1ccc2c(c1)c(-c1cccc(Cl)c1)cc(=O)n2CC1CC1` (single isomer, unassigned; (+)) [Example 8, (+)-6-[Amino-(6-chloro-pyridin-3-yl)-(3-methyl-3H -imidazol-4-yl)-methyl]-4-(3-chloro-phenyl)-1-cyclopropylmethyl-1H-quinolin-2-one]?
A: activity in inhibiting the enzyme farnesyl protein transferase, relative to the levorotatory isomer (compared with the levorotatory isomer, figures not given): greater activity; IC50 (crude FTase (cytosolic fraction of brain tissue), [3H]-FPP, Bt-KTKCVIS, 45 minute incubation at 37° C., read-out: IC50 value for inhibiting farnesylation of the biotinylated KTKCVIS-peptide): < 0.5 µM
